Measurements as given in article PMC4928820 (Molecular Pharmaceutics, 2015).

What was measured:
[1] = format: physicochemical; details: 37 °C, mean ± SD, triplicate; for Thermodynamic solubility in Carbitol: cosolvent; for Thermodynamic solubility in Maisine 35-1: long-chain mono-; for Thermodynamic solubility in Maisine 35-1 / Thermodynamic solubility in Capmul MCM EP: di-, triglyceride; for Thermodynamic solubility in Capmul MCM EP: medium-chain mono-; for Thermodynamic solubility in Cremophor EL: surfactant (≤3% w/w water)
[2] = water-saturated tricaprylin compared to dry tricaprylin ref 34; cited from earlier work

Row | Thermodynamic solubility in Carbitol [1] [mg/g] | Thermodynamic solubility in Maisine 35-1 [1] [mg/g] | Thermodynamic solubility in Capmul MCM EP [1] [mg/g] | Thermodynamic solubility in Cremophor EL [1] [mg/g] | Compound | Increase of solubility [2]
1 | 85.5 ± 4.29 | 14.1 ± 1.18 | 26.0 ± 1.45 | 70.6 ± 3.87 | Cc1c(Cl)cccc1Nc1ccccc1C(=O)O [tolfenamic acid] | –
2 | 217.2 ± 16.0 | 37.7 ± 1.37 | 80.2 ± 2.22 | 125.1 ± 6.23 | CCOC(=O)C1=C(C)NC(C)=C(C(=O)OC)C1c1cccc(Cl)c1Cl (stereo not drawn) [felodipine] | –
3 | 116.9 ± 14.8 | 85.9 ± 5.32 | 184.9 ± 12.4 | 45.4 ± 3.51 | O=C(C1CCCCC1)N1CC(=O)N2CCc3ccccc3C2C1 (stereo not drawn) [praziquantel] | –
4 | 21.1 ± 0.46 | 0.52 ± 0.14 | 5.49 ± 0.26 | 11.2 ± 1.01 | COc1ccc(Cl)cc1C(=O)NCCc1ccc(S(=O)(=O)NC(=O)NC2CCCCC2)cc1 [glibenclamide] | –
5 | 25.6 ± 1.00 | 5.36 ± 0.61 | 7.23 ± 0.20 | 12.3 ± 0.25 | COc1ccc2c(c1OC)C(=O)O[C@@H]2[C@H]1c2c(cc3c(c2OC)OCO3)CCN1C [noscapine] | –
6 | 247.1 ± 8.93 | 22.1 ± 1.83 | 56.3 ± 1.76 | 163.9 ± 10.1 | C#C[C@]1(O)CC[C@H]2[C@@H]3CCc4cc(O)ccc4[C@H]3CC[C@@]21C [ethinylestradiol] | –
7 | 27.2 ± 1.82 | 3.57 ± 0.16 | 13.4 ± 0.51 | 11.3 ± 0.82 | O=C(CCCN1CCC(O)(c2ccc(Cl)cc2)CC1)c1ccc(F)cc1 [haloperidol] | –
8 | 67.02 ± 1.36 | 66.2 ± 4.87 | 99.1 ± 2.94 | 41.1 ± 1.27 | CC(=O)[C@H]1CC[C@H]2[C@@H]3CCC4=CC(=O)CC[C@]4(C)[C@H]3CC[C@]12C [progesterone] | –
9 | ≥317 | ≥123 | ≥288 | – | CC(C)(C)NC(=O)[C@@H]1C[C@@H]2CCCC[C@@H]2CN1C[C@@H](O)[C@H](Cc1ccccc1)NC(=O)[C@H](CC(N)=O)NC(=O)c1ccc2ccccc2n1 [saquinavir] | –
10 | 49.6 ± 2.62 | 3.97 ± 0.19 | 10.1 ± 0.40 | 44.1 ± 1.75 | O=C(Nc1ccc([N+](=O)[O-])cc1Cl)c1cc(Cl)ccc1O [niclosamide] | –

The remaining lines, values behind:

Row | Compound | Thermodynamic solubility in Carbitol [1] [mg/g] | Thermodynamic solubility in Maisine 35-1 [1] [mg/g] | Thermodynamic solubility in Capmul MCM EP [1] [mg/g] | Thermodynamic solubility in Cremophor EL [1] [mg/g] | Increase of solubility [2]
11 | CCOc1nc2cccc(C(=O)OC(C)OC(=O)OC3CCCCC3)c2n1Cc1ccc(-c2ccccc2-c2nnn[nH]2)cc1 (stereo not drawn) [candesartan cilexetil] | 77.0 ± 2.04 | 1.99 ± 0.19 | 9.07 ± 0.38 | 26.4 ± 1.46 | –
12 | Clc1ccccc1C(c1ccccc1)(c1ccccc1)n1ccnc1 [clotrimazole] | 135.0 ± 3.57 | 75.4 ± 8.95 | 136.7 ± 5.94 | 44.1 ± 3.01 | –
13 | CCOc1nc2cccc(C(=O)O)c2n1Cc1ccc(-c2ccccc2-c2nnn[nH]2)cc1 [candesartan] | 20.5 ± 1.26 | ≤0.41 | 3.19 ± 0.14 | 11.3 ± 0.67 | –
14 | COc1cc(C)c(/C=C/C(C)=C/C=C/C(C)=C/C(=O)O)c(C)c1C [acitretin] | 3.52 ± 0.20 | 0.62 ± 0.06 | 1.54 ± 0.10 | 2.85 ± 0.14 | –
15 | CNC(=O)c1ccccc1 [N-methylbenzamide] | – | – | – | – | more than 50%
16 | O=C(O)c1cc(-c2ccc(F)cc2F)ccc1O [diflunisal] | 286.3 ± 13.4 | 31.6 ± 0.99 | 53.4 ± 1.29 | 157.9 ± 6.54 | –
17 | CC(C)/N=c1\cc2n(-c3ccc(Cl)cc3)c3ccccc3nc-2cc1Nc1ccc(Cl)cc1 [clofazimine] | 22.8 ± 0.54 | 11.7 ± 0.24 | 16.3 ± 0.44 | 15.9 ± 0.83 | –
18 | OCCN(CCO)c1nc(N2CCCCC2)c2nc(N(CCO)CCO)nc(N3CCCCC3)c2n1 [dipyridamole] | 43.1 ± 2.40 | 3.02 ± 0.16 | 12.3 ± 0.36 | 9.57 ± 0.29 | –
19 | CC(C)(Oc1ccc(CCNC(=O)c2ccc(Cl)cc2)cc1)C(=O)O [bezafibrate] | 43.0 ± 1.83 | 1.55 ± 0.05 | 6.36 ± 0.26 | 37.9 ± 5.23 | –
20 | COc1ccc2c(c1)c(CC(=O)O)c(C)n2C(=O)c1ccc(Cl)cc1 [indomethacin] | 187.4 ± 7.08 | 13.0 ± 0.88 | 28.6 ± 1.30 | 71.6 ± 4.57 | –
21 | CCN(CC)C(=S)SSC(=S)N(CC)CC [disulfiram] | 162.6 ± 8.46 | 49.0 ± 3.05 | 47.2 ± 2.05 | 88.8 ± 3.66 | –
22 | O=C(O)c1cc(/N=N/c2ccc(S(=O)(=O)Nc3ccccn3)cc2)ccc1O [sulfasalazine] | 16.4 ± 0.72 | 0.16 ± 0.02 | 3.16 ± 0.06 | 13.1 ± 1.02 | –
23 | CC(C)(Oc1ccc(C(=O)c2ccc(Cl)cc2)cc1)C(=O)O [fenofibric acid] | 92.8 ± 4.81 | 7.38 ± 0.22 | 14.5 ± 0.50 | 58.4 ± 2.59 | –
24 | CCCSc1ccc2nc(NC(=O)OC)[nH]c2c1 [albendazole] | 5.99 ± 0.19 | 3.86 ± 0.21 | 3.17 ± 0.10 | 2.75 ± 0.14 | –
25 | COC(=O)Nc1nc2ccc(Sc3ccccc3)cc2[nH]1 [fenbendazole] | 4.13 ± 0.28 | 0.69 ± 0.11 | 1.28 ± 0.09 | 2.07 ± 0.09 | –
26 | CCCCN(CCCC)CCC(O)c1cc2c(Cl)cc(Cl)cc2c2cc(C(F)(F)F)ccc12 (stereo not drawn) [halofantrine] | 79.3 ± 7.90 | 71.2 ± 4.58 | 52.6 ± 3.01 | 27.9 ± 0.79 | –
27 | COC1=CC(=O)C[C@@H](C)[C@]12Oc1c(Cl)c(OC)cc(OC)c1C2=O [griseofulvin] | 18.9 ± 0.99 | 2.43 ± 0.05 | 5.56 ± 0.21 | 9.70 ± 0.36 | –
28 | Cc1cccc(Nc2ccccc2C(=O)O)c1C [mefenamic acid] | 43.6 ± 1.52 | 5.38 ± 0.40 | 9.63 ± 0.40 | 30.7 ± 0.89 | –
29 | Cc1cc(-n2c(=O)[nH]c(=O)n(C)c2=O)ccc1Oc1ccc(SC(F)(F)F)cc1 [toltrazuril] | 50.2 ± 2.47 | 7.90 ± 1.03 | 11.8 ± 0.59 | 19.7 ± 3.11 | –
30 | CCC(C)n1ncn(-c2ccc(N3CCN(c4ccc(OCC5COC(Cn6cncn6)(c6ccc(Cl)cc6Cl)O5)cc4)CC3)cc2)c1=O (stereo not drawn) [itraconazole] | 6.30 ± 0.55 | 2.26 ± 0.16 | 5.60 ± 0.67 | 1.92 ± 0.29 | –
31 | NC(=O)N1c2ccccc2C=Cc2ccccc21 [carbamazepine] | 82.9 ± 1.80 | 30.0 ± 1.66 | 55.5 ± 3.23 | 34.5 ± 1.06 | –
